Broadly, the melting point is the temperature, or range, at which the solid turns liquid. Molecule `CCN(CC)CCOc1c(-c2ccc(S(C)(=O)=O)cc2)cnn(-c2cccc(Cl)c2)c1=O` registered a melting point of 110 to 113 °C.

Molecule `Cc1ccc(C(=O)C2=C(O)C(=O)N(c3ccc(C)nn3)C2c2ccc(N3CCN(CCN(C)C)CC3)cc2)cc1` (configuration not stated) gave a melting point of 185 °C. `O=Cc1csc(N2CCCCC2)n1` had a melting point of 68 to 69 °C. `COc1c(OCc2ccccc2)cc(C(=O)Cl)cc1OCc1ccccc1` had a melting point of 124 to 127 °C. As to `Cn1c(COc2ccc(CC3SC(=O)NC3=O)cc2)nc2ccc(Oc3ccc(NC(=O)Nc4cccc5ccccc45)cc3)cc21` (configuration not stated), the melting point was in the range of 211 to 214 °C. `Cc1ccc2c3c1OC(c1ccccc1)N3C(=O)C1CCCN1C2=O` (configuration not stated): the melting point lay within 158 to 162 °C. Regarding `Cn1cc2c(c1-c1ccccc1)C(=O)c1ccccc1C2=O`, the melting point is 268 to 271 °C. In turn, `Oc1cc2ccsc2c(Cl)c1Cl` yielded a melting point of 97 to 98 °C. In turn, `CCCCCCN(O)C(=O)N(C)C` yielded a melting point of 19 to 20 °C.

As to `NC(=O)Nc1ccc(C(O)(C(F)(F)F)C(F)(F)F)cc1`, the melting point fell in the range of 176 to 179 °C. As for `Cc1ccc(C(=O)Nc2ccc(CN3CCN(C)CC3)c(C(F)(F)F)c2)cc1C#Cc1ccc(NC(C)C)nn1`, the figure is 67 to 68 °C; as for `CN(C)CCn1c(=O)sc2ccc(Cl)cc21`, 62.5 to 65.5 °C. As for `COc1ccc(/C=C/c2ncccc2C(=O)O)cc1`, the melting point lay in the range of 230 to 233 °C. Under `COc1ccc2c(CCCC(=O)O)nnc(-c3nccs3)c2c1` stands 218 to 220 °C. As for `CCOC(=O)N=C(NCCCc1c[nH]cn1)NCCC(c1ccccc1)c1ccccc1`, the figure is 125 to 126 °C; as for `CCCCc1nc(Cl)c(CO)n1Cc1ccc2oc(-c3ccccc3C#N)c(OC)c2c1`, 164 to 168 °C; as for `c1cc(-c2cn3c(n2)CCC3)ccn1`, 140 to 141 °C. Take `N=C(Nc1cccc(NC(=O)/C=C/c2ccccc2Cl)c1)c1ccccc1`: the melting point fell in the range of 262 to 264 °C. Under `Cc1cccc2c1ccc1c(O)cc(=O)oc12` stands 223 to 225 °C; under `CCCOc1ccc(S(=O)(=O)N(C)C)cc1C1=NC(=O)C2=NC=NC2=N1`, 268 to 269 °C; under `COc1cc(=O)n(-c2cccc(C(F)(F)F)c2)nc1-c1ccnn1-c1ccccc1`, 165 to 167 °C. As for `O=C1NC(=O)C(Sc2ccc(F)cc2)S1` (configuration not stated), the figure is 99 to 100 °C. Take `COc1ccc(C2=NNS(=O)(=O)Cc3cc4nsnc4cc32)cc1`: the melting point lay in the range of 225 to 227 °C. Under `CCC(=CC(N)C(=O)O)CP(=O)(O)O` (configuration not stated) stands 176 °C.

`CCN(CC)c1ccc(-c2cc(-c3ccc(C(=O)O)cc3)ccc2CCCNC2CC2)cc1C(C)(C)C` yielded a melting point of 189 °C. As for `CC(C)c1c(Sc2ccccc2)n(CC2CC=CC2)c(=O)[nH]c1=O`, the figure is 131 to 134 °C; as for `COc1cc(OC)nc(NS(=O)(=O)c2ccccc2N(C)S(C)(=O)=O)n1`, 228 to 230 °C; as for `COc1cc(OC)c(-c2ccccc2)nn1`, 53 to 54 °C. Consider `O=C(O)C(CCC(=O)N1CCOCC1)Cc1cccc2ccccc12` (configuration not stated), for which the melting point fell in the range of 130 to 135 °C. As for `COC(=O)c1ccncc1OC`, the figure is 132 to 135 °C.

In the case of `COc1cc(NC(C)=O)c(Cl)cc1C(=O)NN1CCN(Cc2cccs2)CC1`, the melting point lay in the range of 178 to 181 °C. Under `Cc1c2c(nc3ccccc13)CCN(C(=O)Oc1ccccc1)CC2` stands 150 °C.

In turn, `CCOC(=O)c1ncn2c1CN=C(c1ccccc1)c1cc(Br)ccc1-2` came in with a melting point of 210 to 212 °C. In the case of `CC(Cc1cc2ccccc2[nH]1)(NC(=O)OC1C2CC3CC(C2)CC1C3)C(=O)NCC(NC(=O)CCC(=O)OCc1ccccc1)c1ccccc1` (configuration not stated), the melting point lay in the range of 109 to 113 °C. As for `COc1cc(Cl)c(C(=O)c2ccccc2F)c(OC)c1`, the figure is 88 to 92 °C. As for `CCn1c(C(O)(C(C)C)C(C)C)nc(-c2ccncc2)c1-c1ccc(Cl)cc1`, the figure is 221 to 223 °C; as for `O=C(Nc1cnc2c(c1)nc1n2CCC1O)c1cc2cc(F)ccc2n1Cc1cccc(F)c1` (configuration not stated), 288 to 290 °C. Under `Cn1cc(S(=O)(=O)C(F)(F)F)c(-c2ccc(Cl)cc2)c1Cl` stands 117 to 119 °C; under `CCCCOc1c(CNC(=O)OC(C)(C)C)n(CC(C)C)c(=O)c2ccc(-c3noc(=O)[nH]3)cc12`, 223 to 224 °C. Molecule `CN1CCN(C(=O)[C@H](CC(N)=O)NC(=O)CCc2ccc(OCc3ccccc3)cc2OCc2ccccc2)CC1` had a melting point of 121 to 123 °C. `Cc1nnc(-c2ccc3occ(-c4ccc(S(=O)Cc5ccccc5)cc4)c3c2)o1` (configuration not stated): the melting point is 183 to 184 °C. As for `Nc1cc(=O)n(Cc2ccccc2F)[nH]1`, the figure is 146 °C; as for `CC(C)(C)OC(=O)Cc1ccc(CC(N=C(c2ccccc2)c2ccccc2)C(=O)OCc2ccccc2)cc1` (configuration not stated), 139 to 141 °C; as for `C=Cc1ccc(NC(=O)OC)nc1`, 146 to 148 °C. `O=C(O)c1cccc(OCc2ccccc2)c1[N+](=O)[O-]` returned a melting point of 198 to 200 °C. Consider `c1csc(C2NCCc3ccccc32)c1` (configuration not stated), for which the melting point lay within 114 to 116 °C. With `CN(C)CCCOc1ccc(-c2nnc(Cc3ccc(Oc4ccccc4)cc3)o2)cc1`, the melting point lay in the range of 156 to 158 °C. The molecule `CCC(C)(C)c1cc(-n2nc3ccccc3n2)c(O)c(C(C)(C)CC)c1` gave a melting point of 77 to 79 °C.

Turning to `CCCC(NS(=O)(=O)c1ccc(Cl)cc1)C(=S)Nc1ccc(CC(=O)O)cc1` (racemic), the melting point lay within 170 to 177 °C. As for `Cc1cccc(C(=O)c2[nH]c3cc(Cl)ccc3c2N)c1`, the figure is 80 to 88 °C. With `CCCCCCCCCCCCOc1ccccc1O`, the melting point was 46 °C. As for `CSCCS(=O)(=O)NCCCc1ccc(-c2ccc(=O)[nH]n2)cc1`, the figure is 173 to 174 °C; as for `COc1ccc2c(c1)OC(C#N)=CO2`, 92 °C; as for `COc1ccc2c(C=O)c(OCc3ccccc3)ccc2c1C(F)(F)F`, 143 to 145 °C. As for `O=c1[nH]c2cc([N+](=O)[O-])c3c(c2[nH]c1=O)CN(C(=S)Nc1ccccc1)CC3`, the figure is 270 to 274 °C; as for `CCCc1cc(NC(=O)N2CCN(c3cc(OC)cc(OC)c3)CC2)c(OC)nc1C`, 82 to 84 °C; as for `O=c1c(-c2ccccc2O)coc2c(O)c(O)ccc12`, 240 to 242 °C. As for `CC(C)C(=O)Nc1ccoc1`, the figure is 120 °C; as for `Cc1noc(NC(=O)N2CCN(c3ccnc(-c4ccc(F)cc4F)c3)CC2)c1C`, 234 to 235 °C. As to `Cn1cc(-c2cccc(Br)c2)c(=O)c(-c2ccccc2Cl)c1`, the melting point lay within 177 to 179 °C. Regarding `CCOC(=O)c1c2n(c3c(F)c(F)c(F)cc3c1=O)C(C)S2` (configuration not stated), the melting point fell in the range of 206 to 210 °C. As for `N=C(N)Nc1nc(CSCCC2=NS(=O)(=O)NC(N)=N2)cs1`, the figure is 175 to 192 °C; as for `O=C(O)c1ccc2c(c1)C(=Cc1ccccc1)OC2=O`, 261 °C; as for `CCCCC(CC)COc1cccc(N2C(C)=CC(=C=C3C(C#N)C(=C(C#N)C#N)OC3(C)C)C=C2C)c1` (configuration not stated), 181 °C. Molecule `Nc1ccc(C(O)c2ccccn2)c(OCC(F)(F)F)c1` (configuration not stated) showed a melting point of 97 to 99 °C. On to `O=c1[nH]c2cc(Cl)c(-n3cccc3)cc2cc1P(=O)(O)O`, for which the melting point fell in the range of 195 to 200 °C. Under `CON(C)C(=O)c1c(COC2CCCCO2)noc1-c1ccccc1Cl` (configuration not stated) stands 51 to 56 °C; under `CC1(C)C(=O)Nc2ccc(-c3ccc(C#N)o3)cc21`, 193 to 194 °C. The molecule `CCCCNC(=O)C=C(C)C=CC=C(C)C=Cc1c(C)cc(OC)c(C)c1C` came in with a melting point of 178 °C. As for `Cc1cccc(C)c1CNc1cc(C(=O)NN)cc2c1nc(C)n2C`, the figure is 277 to 278 °C; as for `C1=CCCCCN(CCc2nccc3c2[nH]c2ccccc23)CCCC1`, 77 to 82 °C; as for `BrCCCCCCOc1ccc(C2c3ccc(OCc4ccccc4)cc3OCC2c2ccccc2)cc1` (configuration not stated), 96.2 to 96.7 °C. As for `Nc1cc(CO)cc(S(N)(=O)=O)c1Cc1ccccc1`, the figure is 159 to 161 °C; as for `CCOc1cccc(CC(=O)O)c1OCCCc1cc(OC(C)C)nn1Cc1ccc(Cl)cc1Cl`, 132 to 133 °C. `COc1ccc([C@@H]2Sc3cc(Cl)ccc3N(CCN(C)C)C(=O)[C@@H]2OCC(=O)OC(C)(C)C)cc1` registered a melting point of 83 to 84 °C. In the case of `O=C1N(Cc2ccc(Br)cc2)c2ccccc2C12COc1cc3c(cc12)OCO3` (configuration not stated), the melting point was in the range of 148 to 150 °C. `CCOC(=O)C1=C(COCCn2c(C)nc3ccccc32)NC2=C(C(=O)C(C)(C)CC2)C1c1ccccc1Cl` (configuration not stated) showed a melting point of 118 to 120 °C. Under `COc1cc2c(cc1Nc1ncc(Cl)c(Nc3ccccc3S(=O)(=O)N(C)C)n1)CCN(CC(=O)N1CCC1)CC2` stands 75 to 87 °C; under `C=C(C)C(=O)N(NC(=O)c1ccccc1)C(C)(C)C`, 148 to 152 °C.

Molecule `COc1ccn(-c2nc(C)c(C(=O)NCc3ccc(F)c(F)c3)s2)c(=O)c1` gave a melting point of 183 to 185 °C.

With `CCCCc1nc2ccn(Cc3ccc([N+](=O)[O-])cc3)c(=O)c2n1Cc1ccc([N+](=O)[O-])cc1`, the melting point was in the range of 142 to 143 °C. In turn, `O=C(OCC1OC(n2cc(F)c(=O)[nH]c2=O)CC1OCc1ccccc1)c1cccnc1` (configuration not stated) came in with a melting point of 130 to 132 °C.

`O=C(CCCN1CCCCC1)c1ccc2[nH]c3ccc(C(=O)CCCN4CCCCC4)cc3c2c1` came in with a melting point of 171 to 173 °C. Molecule `O=C1C(c2cc3c(cc2O)OCC3)c2ccc(F)cc2N1C(c1ccccc1)c1ccccc1` (configuration not stated) displayed a melting point of 121 to 123 °C. Under `CC1(c2ccccc2)OCC(OCc2ccccc2)CO1` (configuration not stated) stands 87 to 88 °C; under `CCC1CC2C3CCC(C(C)CC(C)C(=O)O)C3(C)CCC2C2(C)CCC(O)CC12` (configuration not stated), 138 °C; under `O=C(OCC1OC(OC(=O)c2ccccc2)C(O)C1OC(=O)c1ccccc1)c1ccccc1` (configuration not stated), 137 to 138 °C.

The values above are taken from a melting point compilation (Tetko et al.; mined from patent text by program, amines drawn as free bases though some values may be those of a salt).
